US20120082632A1, “Topical drug delivery system with dual carriers” (priority 2010, published 2012)

Legend:
[1] = system: Staph aureus, MRSA, Klebsiella pneumoniae, E. coli, Proteus vulgaris, Pseudomonas aeruginosa, Enterobacter cloacae, Acinetobacter lwoffi, Acinetobacter …; assay: In-vitro comparison of Lots with different anti-oxidant amounts and control agents (FIGS. 16-27); format: cell-based; details: identical size drops; FIG. 16 Staph aureus, FIG. 17 MRSA, FIGS. 18-24 gram-negative cultures, FIG. 25 Enterococcus faecalis
[2] = system: mouse embryonic stem cells and embryoid bodies; details: cited from earlier work
HL-60 cells = details: cited from earlier work
[3] = system: MRSA infection and Grade I diabetic ulcer of the left hallux with cellulitus; assay: Study III: human field study, diabetic foot lesion of great toe; format: in vivo; details: IV; 8 days following admission
Experimental: In this embodiment, the additional ingredient to hasten a third therapeutic tissue healing effect was added. This embodiment used vitamin D in a small but medically efficacious amount.

Molecule | zones of inhibition of control agents compared with the formulations of the invention [1] | effect on mRNA and protein expression in epigenetic profiles [2] | amount at which desired cellular responses occurred (HL-60 cells) | subsequent retinoid-induced TGM2 expression after priming by pretreatment (HL-60 cells) | patient response to treatment for MRSA [3]
CO[C@@]1(NC(=O)Cc2cccs2)C(=O)N2C(C(=O)O)=C(COC(N)=O)CS[C@@H]21 [Cefoxicillin] | considerably reduced zones of inhibition | – | – | – | –
C[S+](C)[O-] [DMSO, dimethyl sulfoxide] | – | upregulation of mRNA and protein expression | less than 2% | increases | –
CC[C@H]1OC(=O)[C@H](C)[C@@H](O[C@H]2C[C@@](C)(OC)[C@@H](O)[C@H](C)O2)[C@H](C)[C@@H](O[C@@H]2O[C@H](C)C[C@H](N(C)C)[C@H]2O)[C@](C)(O)C[C@@H](C)C(=O)[C@H](C)[C@@H](O)[C@]1(C)O [Erythromycin] | considerably reduced zones of inhibition | – | – | – | –
CN[C@H](CC(C)C)C(=O)N[C@H]1C(=O)N[C@@H](CC(N)=O)C(=O)N[C@H]2C(=O)N[C@H]3C(=O)N[C@H](C(=O)N[C@H](C(=O)O)c4cc(O)cc(O)c4-c4cc3ccc4O)[C@H](O)c3ccc(c(Cl)c3)Oc3cc2cc(c3O[C@@H]2O[C@H](CO)[C@@H](O)[C@H](O)[C@H]2O[C@H]2C[C@](C)(N)[C@H](O)[C@H](C)O2)Oc2ccc(cc2Cl)[C@H]1O [Vancomycin] | considerably reduced zones of inhibition | – | – | – | did not respond
vitamin D | – | – | about 100 nM | increases | –
